US20260193255A1, “7-AZAINDOLE COMPOUNDS, PREPARATION METHOD THEREFOR, AND USE THEREOF” (Fudan University, priority 2022, published 2026)

Columns and labels:
mouse myoblasts (C2C12) = test: Atrophy of mouse myoblasts (C2C12) induced by C26 cell supernatant, myotube diameter by HE staining; type: cell-based; conditions: Mus musculus, 48 hours treatment, C26 supernatant-induced C2C12 myotubes, read-out: Myotube atrophy reversal rate
Procedure: C2C12 cells were inoculated in 24-well plates. The culture system was high-glucose DMEM medium containing 10% FBS with 1% penicillin-streptomycin. The plates were placed in a 5% CO2, 37° C. environment. When the cell growth density reached 50%-60%, the culture system was replaced with high-glucose DMEM culture medium containing 2% HS with 1% penicillin-streptomycin. Fresh 2% HS differentiation medium was replaced every 48 hours, and the cells were differentiated into mature cells on the 5th or 6th day. Additionally, C26 cells were inoculated in T75 flasks. The culture system was high-glucose DMEM medium containing 10% FBS with 1% penicillin-streptomycin. The flasks were placed in a 5% CO2, 37° C. environment. When subculturing, the cells were subcultured at 6 million cells/flask. After culturing in 20 ml of culture medium for 48 hours, the supernatant was collected and centrifuged at 1000 rpm for 3 mins. The supernatant was collected and centrifuged at 4000 rpm for 10 mins to obtain the C26 supernatant. The C26 supernatant and 2% HS differentiation solution were mixed at a ratio of 1:1 (volume ratio) as the muscle atrophy induction solution. Except for the control group in which 2% HS differentiation solution was added, for the other groups, an equivalent amount of muscular atrophy induction solution was added. One group was used as the model group, and the other groups were used as the treatment and experimental groups.
The diameter of myotubes after differentiation of mouse myoblasts (C2C12) was evaluated by using the diameter measurement method. The method for measuring the diameter of myotubes was as follows: after 48 hours of treatment, the myotubes were fixed with a fixative (anhydrous ethanol: formaldehyde: glacial acetic acid (volume ratio)=20:2:1) for more than 1 h and stained. The staining method used in the experiment is hematoxylin-eosin staining, referred to as HE staining for short. Hematoxylin stain is alkaline and positively charged, and it can easily bind to the negatively charged and acidic deoxyribonucleic acid (DNA) in the cell nucleus through ionic bonds to stain it blue; eosin is an acidic dye that dissociates into negatively charged anions in water, and it can easily bind to the positively charged amino groups of proteins in the cytoplasm to stain it red. The stained cells were placed under a high-power microscope to take pictures (magnification: 200 times), and the diameter of myotube cells was statistically analyzed using image J software. The muscle atrophy reversal rate was calculated according to the following formula: Muscle atrophy reversal rate=(average value of myotubes in the treatment group-average value of myotubes in the model group)/(average value of myotubes in the control group-average value of myotubes in the model group)×100%

ActRIIB = ActRIIB (Homo sapiens, UniProt Q13705); test: ActRIIB inhibitory activity, ADP-Glo assay kit; type: biochemical; conditions: ATP 25 μM, substrate 0.1 mg/mL, ActRIIB 20.0 ng/μL
Sequence of ActRIIB (Q13705 19-512): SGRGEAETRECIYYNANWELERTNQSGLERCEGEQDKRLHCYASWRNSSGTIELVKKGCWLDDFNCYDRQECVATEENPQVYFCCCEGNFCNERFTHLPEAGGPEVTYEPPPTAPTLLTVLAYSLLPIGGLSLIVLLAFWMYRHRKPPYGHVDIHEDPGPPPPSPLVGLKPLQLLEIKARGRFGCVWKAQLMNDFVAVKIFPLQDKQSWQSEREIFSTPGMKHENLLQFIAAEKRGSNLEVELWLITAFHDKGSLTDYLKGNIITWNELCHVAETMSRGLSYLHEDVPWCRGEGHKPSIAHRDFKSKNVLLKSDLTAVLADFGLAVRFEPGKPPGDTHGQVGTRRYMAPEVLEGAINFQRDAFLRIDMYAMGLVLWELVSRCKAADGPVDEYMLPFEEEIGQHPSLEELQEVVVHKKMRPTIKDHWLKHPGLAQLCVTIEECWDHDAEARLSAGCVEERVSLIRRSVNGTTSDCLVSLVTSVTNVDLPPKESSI
Procedure: The ATP and substrate concentrations recommended by the ADP-Glo™ assay kit were used, which were 25 μM and 0.1 mg/mL, respectively, and a series of isocratic final ActRIIB concentrations were set up, which were 0, 0.47, 0.94, 1.88, 3.75, 7.5, 15, 30, and 60 ng/μL, respectively. According to the […] values obtained in the experiment, an ActRIIB concentration titration curve was drawn. The ActRIIB concentrations corresponding to the ratio of the signal value to the background value (i.e., signal-to-background ratio, SBR) in the range of 5-10 times are suitable for screening compounds for inhibition of ActRIIB activity. From the ActRIIB concentration titration curve, the final ActRIIB concentrations corresponding to SB5 and SB10 were calculated to be 14.9 and 23.7 ng/μL, respectively. Finally, a final concentration of 20.0 ng/μL was selected as the experimental concentration for screening compounds for their inhibitory activity against ActRIIB. The inhibitory efficiency of 7-azaindole compounds on ActRIIB was detected at concentrations of 0.1, 1, 10, and 100 nM, respectively.

[1] = system: C26 tumor cancer cachexia model, BALB/c mice; test: Cancer cachexia animal model, compound 2 (C26 tumor, BALB/c mice, 5 mg/kg ig); type: in vivo, mouse; conditions: 5 mg/kg ig daily
Procedure: C26 cells were inoculated in T75 flasks. The culture system was 1640 medium containing 10% FBS with 1% penicillin-streptomycin. The flasks were placed in a 5% CO2, 37° C. environment for expansion culture. The cells were collected by centrifugation at 1000 rpm for 3 mins, and the culture medium was washed away with ice-cold PBS buffer, and a cell suspension of 10 million/ml was prepared. The cell suspension was inoculated into the left and right armpits of BALB/c mice at a concentration of 1 million for tumor development. When the tumor volume increased to 1000 mm^3, the tumor was removed and homogenized with 3 ml of ice saline/g to obtain a tumor tissue suspension. The mice to be inoculated were divided into groups according to their weight, and the cell suspension was inoculated into the left armpit of Balb/c mice at an inoculation volume of 100 μl per mouse. Treatment was started from the day after inoculation. Compound 2 was dissolved in 3% DMSO, 2% Solutol and 95% saline in sequence to form a uniform solution with the required concentration. The solution was prepared and used daily. The dose was 5 mg/kg and the compound was administered by the intragastric (ig) route. The body weight, temperature, tumor size and food intake of mice were monitored daily. […] When the tumor volume of mice in the model group reached 2.0× 103 mm^3 or their body weight decreased by 10%, they were considered to have entered the cachexia stage. The muscle grasp force of the mice's forelimbs was tested at these two stages. […] At the end of the experiment, the mice were killed by cervical dislocation and the gastrocnemius, tibialis anterior, right hind limb and tumor samples were obtained, and the sample weights were measured.
(§1) The method for detecting muscle grasp force was as follows: The muscle grasp force of mice was tested on the 5th day (pre-cachexia stage) and the 22nd day (cachexia stage) of the experiment. The mouse was steadily placed on the YLS-13A Mouse and Rat Grasp Force Tester by using the right hand, so that its forelimbs could tightly grasp the gripping disk, and the gripping disk was stabilized by using the left hand moving forward. When the left hand slowly released the gripping disk, the right hand immediately and slowly pulled the mouse's tail backwards until its forelimbs were separated from the gripping disk. The test was repeated 8 times for each mouse, and the mean value of the 8 measurements was used as the skeletal muscle strength index of each mouse.

[2] = system: C26 tumor cancer cachexia model, BALB/c mice; test: Cancer cachexia animal model, compounds 3 and 10 (C26 tumor, BALB/c mice, 10 mg/kg ip); type: in vivo, mouse; conditions: 10 mg/kg ip daily; for Cross-sectional area of gastrocnemius fibers: H&E sections; for Muscle grasp force: p<0.05
Procedure: C26 cells were inoculated in T75 flasks. The culture system was 1640 medium containing 10% FBS with 1% penicillin-streptomycin. The flasks were placed in a 5% CO2, 37° C. environment for expansion culture. The cells were collected by centrifugation at 1000 rpm for 3 mins, and the culture medium was washed away with ice-cold PBS buffer, and a cell suspension of 10 million/ml was prepared. The cell suspension was inoculated into the left and right armpits of BALB/c mice at a concentration of 1 million for tumor development. When the tumor volume increased to 1000 mm^3, the tumor was removed and homogenized with 3 ml of ice saline/g to obtain a tumor tissue suspension. The mice to be inoculated were divided into groups according to their weight, and the cell suspension was inoculated into the left armpit of BALB/c mice at an inoculation volume of 100 μl per mouse. Treatment was started from the day after inoculation. Compounds 3 and 10 were dissolved in 3% DMSO, 2% Solutol and 95% saline in sequence to form a uniform solution with the required concentration. The solution was prepared and used daily. The dose was 10 mg/kg and the compound was administered by intraperitoneal injection (ip). The body weight, temperature, tumor size and food intake of mice were monitored daily. […] In the middle stage of the experiment, the weight of the mice in the model group began to decrease, which was considered to have entered the mid-cachexia stage. When the tumor volume of the mice in the model group reached 2.0× 103 mm^3 or their body weight decreased by 10%, they were considered to have entered the late-cachexia stage. The muscle grasp force of the mice's forelimbs was tested at these three stages. At the end of the experiment, the mice were killed by cervical dislocation and the gastrocnemius, tibialis anterior, right hind limb and tumor samples were obtained, and the sample weights were measured. Gastrocnemius tissue of appropriate size was obtained, and H&E stained tissue sections were prepared through processes such as fixation, embedding, slicing, staining. At least 10 fields of view were randomly selected for slices of different groups for photographing, and the cross-sectional areas of all muscle fibers in the photographs were measured and statistically analyzed.
as §1, with “3rd” for “5th”, “(pre-cachexia stage), the 11th day (mid-cachexia” for “(pre-cachexia”, “16th” for “22nd”, “(late-cachexia” for “(cachexia”

For `CN1CCN(c2ccc(-c3cnc4[nH]cc(-c5cc[nH]n5)c4c3)cc2)CC1` [Compound 2, 3-(1H-pyrazol-3-yl)-5-[4-(4-methylpiperazin-1-yl)phenyl]-1H-pyrrolo[2,3-b]pyridine], the inhibition at 1.25 µM (mouse myoblasts (C2C12)) was 69.2%, the inhibition at 2.5 µM (mouse myoblasts (C2C12)) was 97.6% and the inhibition at 5 µM (mouse myoblasts (C2C12)) was 131%. For the same compound, the IC50 (ActRIIB) was 1.8 nM, the “Average accumulative food intake vs C26 tumor model group” value [1] was “slightly higher than that in the C26 tumor model group” and the “Right hind limb weight (skeletal muscle atrophy)” value (“Right hind limb weight” below) [1] was “improve skeletal muscle atrophy in cachectic mice to a certain extent”. The “Tumor volume vs C26 tumor model group” value [1] was “slightly reduced compared with the C26 tumor model group, but there was no significant difference”, the Muscle grasp force ([1]; cachexia stage, p=0.06) was “significantly enhance the muscle grasp force of cachexia mice” and the “Gastrocnemius mass (gastrocnemius atrophy)” value ([1]; p<0.05) was “significantly alleviate the gastrocnemius atrophy in cachectic mice”. The “Tibialis anterior mass (tibialis anterior atrophy)” value ([1]; p<0.05) was “significantly alleviate the tibialis anterior atrophy in cachectic mice” and the “Weight loss (tumor-bearing and tumor-free body weight) vs C26 tumor model group” value ([1]; p<0.05 at end of experiment) was “significantly alleviate the weight loss of mice”.
`c1cc(-c2c[nH]c3ncc(-c4ccc(OCCN5CCOCC5)cc4)cc23)n[nH]1` [Compound 10, 3-(1H-pyrazol-3-yl)-5-(4-[[2-(1,4-oxazacyclohexan-4-yl)ethyl]oxy]phenyl)-1H-pyrrolo[2,3-b]pyridine] showed an inhibition at 1.25 µM (mouse myoblasts (C2C12)) of 42.4%, an inhibition at 2.5 µM (mouse myoblasts (C2C12)) of 58.9% and an inhibition at 5 µM (mouse myoblasts (C2C12)) of 100%. The IC50 (ActRIIB) was 4 nM, the “Average accumulative food intake vs C26 tumor model group” value [2] was “slightly higher than that in the C26 tumor model group” and the “Gastrocnemius atrophy (muscle mass)” value [2] was “cannot significantly alleviate the gastrocnemius atrophy in cachectic mice”. For the same compound, the “Right hind limb weight” value [2] was “improve skeletal muscle atrophy in cachectic mice to a certain extent”, the “Tibialis anterior atrophy (muscle mass)” value [2] was “cannot significantly alleviate the tibialis anterior atrophy in cachectic mice” and the “Tumor volume vs C26 tumor model group” value [2] was “slightly reduced compared with the C26 tumor model group, but there was no significant difference”. For the same compound, the “Weight loss (tumor-bearing and tumor-free body weight) vs C26 tumor model group” value [2] was “significantly alleviate the weight loss of mice”, the “Cross-sectional area of gastrocnemius fibers” value [2] was “significantly alleviate the reduction in the cross-sectional area of the gastrocnemius in cachectic mice” and the Muscle grasp force [2] was “significantly enhance the muscle grasp force of cachexia mice”.
For `CN1CCN(c2ccc(-c3cnc4[nH]cc(-c5ccc6[nH]ccc6c5)c4c3)cc2)CC1` [Compound 3, 3-(1H-indol-5-yl)-5-[4-(4-methylpiperazin-1-yl)phenyl]-1H-pyrrolo[2,3-b]pyridine], the inhibition at 2.5 µM (mouse myoblasts (C2C12)) was 90.9%, the IC50 (ActRIIB) was 1.1 nM and the “Average accumulative food intake vs C26 tumor model group” value [2] was “slightly higher than that in the C26 tumor model group”. For the same compound, the “Gastrocnemius atrophy (muscle mass)” value [2] was “cannot significantly alleviate the gastrocnemius atrophy in cachectic mice”, the “Right hind limb weight” value [2] was “improve skeletal muscle atrophy in cachectic mice to a certain extent” and the “Tibialis anterior atrophy (muscle mass)” value [2] was “cannot significantly alleviate the tibialis anterior atrophy in cachectic mice”. The “Tumor volume vs C26 tumor model group” value [2] was “slightly reduced compared with the C26 tumor model group, but there was no significant difference”, the “Weight loss (tumor-bearing and tumor-free body weight) vs C26 tumor model group” value [2] was “alleviate the weight loss of mice to some extent” and the “Cross-sectional area of gastrocnemius fibers” value [2] was “significantly alleviate the reduction in the cross-sectional area of the gastrocnemius in cachectic mice”. For the same compound, the Muscle grasp force [2] was “significantly enhance the muscle grasp force of cachexia mice”.
